Assay [1] relates to C2C12-IDBRE-luciferase cells. The assay is described as follows: BMP activity, C2C12-IDBRE-luciferase reporter assay. The class given is cell-based. The conditions noted are these: 24 hours after treatment, 100% activity = luminescence 200% of DMSO control, read-out: Qualified absolute AC50. The method, then: C2C12-IDBRE-luciferase reporter line was established by infecting C2C12 cells with lentiviruses with IDBRE-luciferase pLenti6 plasmid with Blasticidin resistance.
C2C12-IDBRE-luciferase cells were plated to 384-well plate at 5000 cells in 36 μl DMEM plus 10% FBS at day 0. Cells were treated with different doses of compounds at day 1. Bright-Glo™ Luciferase Assay (Promega, catalog # E2650) was performed with EnVision plate reader (PerkinElmer) 24 hours after treatment at day 2. 0% activity is equal to DMSO control. 100% activity means Luminescence reading for a compound is 200% of luminescence reading of DMSO control. The formula to calculate the activity is: 100*(Luminescence_compound−Luminescence_DMSO)/Luminescence_DMSO
In general terms: In a reporter assay the amount or activity of a reporter protein is the signal.

The subject of assay [2] is 293T-NFAT-luciferase cells. The assay is described as follows: Calcineurin inhibition, 293T-NFAT-luciferase reporter assay. The class given is cell-based. The following applies: 293T-NFAT-luciferase cells co-treated with 100 ng/ml PMA and 1 μM Ionomycin, 24 hours after treatment; read-out: NFAT-luc IC50. The method, then: NFAT-luciferase reporter line was established by transfecting NFAT-luciferase/pTranslucent (Panomics #LR0050) and Puromycin-resistance plasmid together into 293T cells.
293T-NFAT-luciferase cells were plated to 384-well plate at 10000 cells in 32 μl DMEM plus 10% FBS at day 0. Cells were treated with different doses of compounds at day 1. Half an hour after compound treatment, 293T-NFAT-luciferase cells were co-treated with 100 ng/ml PMA (PHORBOL 12-MYRISTATE 13-ACETAT, Sigma, catalog #P8139-1MG) and 1 μM Ionomycin (Sigma, catalog #10634-1MG). Bright-Glo™ Luciferase Assay (Promega, catalog # E2650) was performed with EnVision plate reader (PerkinElmer) 24 hours after treatment at day 2.

Among the data in patent publication US10259827B2, “BMP potentiators” (NOVARTIS AG, priority 2016, dated 2019) are AC50 and IC50 values, retold here.

A value given as a limit tells only on which side of the number the result lay.

As usually defined, the AC50 is the concentration giving half of the maximal activity seen. The IC50 is the concentration that inhibits the measured activity by half.

Turning to `CO[C@H]1C[C@@H](C)C/C(C)=C/[C@@H](C/C=C/C2(O)COC2)C(=O)C[C@H](O)[C@@H](C)[C@@H](/C(C)=C/[C@@H]2CC[C@@H](O)[C@H](OC)C2)OC(=O)[C@@H]2CCCCN2C(=O)C(=O)[C@]2(O)O[C@H]1[C@@H](OC)C[C@H]2C` [Compound A], the AC50 in assay [1] was 91 nM. In assay [2], the IC50 was more than 50000 nM.

`CC[C@H]1C(=O)C[C@H](O)[C@@H](C)[C@@H](/C(C)=C/[C@@H]2CC[C@@H](O)[C@H](OC)C2)OC(=O)[C@@H]2CCCCN2C(=O)C(=O)[C@]2(O)O[C@H]([C@@H](OC)C[C@@H](C)C[C@@]3(C)O[C@H]13)[C@@H](OC)C[C@H]2C` [Compound B]: the AC50 in assay [1] came out at 24 nM. In addition, in assay [2], the IC50 is more than 50000 nM.

On to `CC[C@H]1C(=O)C[C@H](O)[C@@H](C)[C@@H](/C(C)=C/[C@@H]2CC[C@@H](O)[C@H](OC)C2)OC(=O)[C@@H]2CCCCN2C(=O)C(=O)[C@]2(O)O[C@H]([C@@H](OC)C[C@@H](C)C[C@]3(C)O[C@@H]13)[C@@H](OC)C[C@H]2C` [Compound C], for which the AC50 in assay [1] was 201 nM. Besides, the IC50 in assay [2] amounted to 33 nM.

Consider `C=CC[C@@H]1/C=C(\C)C[C@H](C)C[C@H](OC)[C@H]2O[C@@](O)(C(=O)C(=O)N3CCCC[C@H]3C(=O)O[C@H](/C(C)=C/[C@@H]3CC[C@@H](O)[C@H](OC)C3)[C@H](C)[C@@H](O)CC1=O)[C@H](C)C[C@@H]2OC` [FK-506, reference compound], for which, in assay [1], the AC50 came to 24 nM. Moreover, the IC50 in assay [2] was 0.05 nM.
